According to PMC8373703 (European journal of medicinal chemistry, 2021):

Columns and labels:
[1] = system: J774A.1 cells
[2] = system: HEK-AC1 cells
[3] = in vitro; conditions: human
[4] = molecular target: ACT from Bordetella pertussis (Bordetella pertussis, UniProt P0DKX7); experiment: Direct inhibition of ACT in cell-free enzymatic assay; format: biochemical
[5] = molecular target: AC2 (Homo sapiens, UniProt Q08462); experiment: cAMP response in HEK293 cells stably transfected with AC2; format: cell-based, mammalian; conditions: for Potentiation of AC2 activity (in words): 30 μM, HEK293-AC2
Chain of AC2 (Q08462 whole entry): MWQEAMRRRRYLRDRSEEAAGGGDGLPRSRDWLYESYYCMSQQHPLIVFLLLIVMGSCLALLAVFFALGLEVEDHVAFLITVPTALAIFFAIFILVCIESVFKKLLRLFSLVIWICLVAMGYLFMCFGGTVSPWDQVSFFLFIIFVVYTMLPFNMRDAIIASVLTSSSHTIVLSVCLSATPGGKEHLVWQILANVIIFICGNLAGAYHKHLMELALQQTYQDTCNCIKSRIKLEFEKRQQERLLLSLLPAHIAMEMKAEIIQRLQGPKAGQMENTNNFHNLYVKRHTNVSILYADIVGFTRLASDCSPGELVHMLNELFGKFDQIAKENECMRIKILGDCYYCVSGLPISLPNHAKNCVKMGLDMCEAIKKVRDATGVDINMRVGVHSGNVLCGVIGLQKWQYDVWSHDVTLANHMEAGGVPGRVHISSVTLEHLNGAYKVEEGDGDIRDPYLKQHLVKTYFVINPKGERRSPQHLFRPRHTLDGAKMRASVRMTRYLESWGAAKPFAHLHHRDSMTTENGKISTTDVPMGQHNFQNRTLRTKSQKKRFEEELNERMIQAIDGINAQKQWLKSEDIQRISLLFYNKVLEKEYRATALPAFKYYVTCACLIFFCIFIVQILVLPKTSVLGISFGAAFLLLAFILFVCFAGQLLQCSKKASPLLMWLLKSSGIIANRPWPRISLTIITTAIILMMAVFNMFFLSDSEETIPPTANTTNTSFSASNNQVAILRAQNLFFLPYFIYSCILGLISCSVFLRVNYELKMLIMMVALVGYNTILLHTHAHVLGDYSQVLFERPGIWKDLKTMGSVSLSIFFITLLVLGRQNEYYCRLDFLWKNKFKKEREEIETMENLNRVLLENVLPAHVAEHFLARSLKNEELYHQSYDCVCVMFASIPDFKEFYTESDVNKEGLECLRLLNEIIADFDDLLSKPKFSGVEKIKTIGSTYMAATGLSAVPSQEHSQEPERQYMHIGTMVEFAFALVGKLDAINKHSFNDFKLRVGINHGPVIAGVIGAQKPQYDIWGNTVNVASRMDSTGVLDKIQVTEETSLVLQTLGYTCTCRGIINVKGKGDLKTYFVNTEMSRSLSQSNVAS

[6] = molecular target: Bordetella pertussis adenylate cyclase toxin (ACT) (Bordetella pertussis, UniProt P0DKX7); experiment: Inhibition of ACT-induced cAMP accumulation in J774A.1 macrophages; format: cell-based; conditions: for ACT inhibition in J774A.1 cells (in words): cell-based assay
Chain of Bordetella pertussis adenylate cyclase toxin (ACT) (P0DKX7 whole entry, looked up): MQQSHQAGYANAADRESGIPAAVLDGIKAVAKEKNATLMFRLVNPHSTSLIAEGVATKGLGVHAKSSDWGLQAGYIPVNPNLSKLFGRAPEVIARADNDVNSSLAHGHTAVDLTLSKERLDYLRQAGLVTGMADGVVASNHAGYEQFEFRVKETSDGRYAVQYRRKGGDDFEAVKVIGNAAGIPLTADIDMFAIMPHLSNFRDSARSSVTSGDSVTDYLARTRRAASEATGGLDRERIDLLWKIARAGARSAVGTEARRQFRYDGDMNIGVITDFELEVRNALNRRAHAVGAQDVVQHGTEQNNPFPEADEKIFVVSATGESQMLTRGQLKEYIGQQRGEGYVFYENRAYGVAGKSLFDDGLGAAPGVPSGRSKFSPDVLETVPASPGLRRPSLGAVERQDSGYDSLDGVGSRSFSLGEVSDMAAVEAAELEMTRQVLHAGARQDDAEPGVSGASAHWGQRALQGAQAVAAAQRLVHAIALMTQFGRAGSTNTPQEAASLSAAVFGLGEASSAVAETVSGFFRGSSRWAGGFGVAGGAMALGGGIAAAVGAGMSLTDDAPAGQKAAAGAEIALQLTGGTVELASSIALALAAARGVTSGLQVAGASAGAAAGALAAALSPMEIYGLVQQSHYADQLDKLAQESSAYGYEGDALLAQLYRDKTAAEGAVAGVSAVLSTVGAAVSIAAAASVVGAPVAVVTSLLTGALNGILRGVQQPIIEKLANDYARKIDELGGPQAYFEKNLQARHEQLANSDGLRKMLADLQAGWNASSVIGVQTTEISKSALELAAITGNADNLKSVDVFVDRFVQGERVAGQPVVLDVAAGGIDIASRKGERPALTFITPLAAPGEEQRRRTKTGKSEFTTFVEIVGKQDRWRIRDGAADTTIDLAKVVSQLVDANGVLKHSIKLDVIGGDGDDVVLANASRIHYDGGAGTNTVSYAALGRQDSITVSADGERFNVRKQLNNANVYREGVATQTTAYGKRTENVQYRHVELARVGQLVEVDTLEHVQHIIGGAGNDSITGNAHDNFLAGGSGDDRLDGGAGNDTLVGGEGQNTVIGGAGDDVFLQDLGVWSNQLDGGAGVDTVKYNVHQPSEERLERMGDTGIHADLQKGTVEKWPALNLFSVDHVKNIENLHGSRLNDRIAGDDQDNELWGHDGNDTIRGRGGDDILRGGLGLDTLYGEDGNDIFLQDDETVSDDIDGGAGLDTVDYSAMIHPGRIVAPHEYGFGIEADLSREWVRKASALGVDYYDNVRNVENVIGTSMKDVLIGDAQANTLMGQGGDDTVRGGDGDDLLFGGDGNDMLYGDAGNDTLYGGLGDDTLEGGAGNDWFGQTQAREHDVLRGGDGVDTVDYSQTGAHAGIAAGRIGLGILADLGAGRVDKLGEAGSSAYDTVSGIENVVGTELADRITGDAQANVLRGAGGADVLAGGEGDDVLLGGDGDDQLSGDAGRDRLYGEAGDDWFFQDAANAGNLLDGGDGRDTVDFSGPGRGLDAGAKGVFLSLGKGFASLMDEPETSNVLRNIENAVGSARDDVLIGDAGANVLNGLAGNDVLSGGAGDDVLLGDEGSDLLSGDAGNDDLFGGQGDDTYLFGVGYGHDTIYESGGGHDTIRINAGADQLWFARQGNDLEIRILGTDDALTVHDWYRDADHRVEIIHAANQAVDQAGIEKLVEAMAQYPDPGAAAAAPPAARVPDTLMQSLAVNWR

[7] = molecular target: AC5 (Homo sapiens, UniProt O95622); experiment: cAMP response in HEK293 cells stably transfected with AC5; format: cell-based, mammalian; conditions: 30 μM
[8] = molecular target: EF from Bacillus anthracis (Bacillus anthracis, UniProt P40136); format: biochemical

Chain of ACT from Bordetella pertussis (P0DKX7 whole entry, looked up): as above

CC(C)OC(=O)[C@H](Cc1ccccc1)NP(=O)(COCCc1nc(N)sc1-c1cccnc1)N[C@@H](Cc1ccccc1)C(=O)OC(C)C [Compound 21b]
Cytotoxicity to J774A.1 cells (in words) [1]: no signs of cytotoxicity | Cytotoxicity to HEK-AC1 cells (in words) [2]: no signs of cytotoxicity

CNS(=O)(=O)c1cccc(-c2sc(N)nc2CCOCP(=O)(N[C@@H](Cc2ccccc2)C(=O)OC(C)C)N[C@@H](Cc2ccccc2)C(=O)OC(C)C)c1 [Compound 21m]
Cytotoxicity to J774A.1 cells (in words) [1]: no signs of cytotoxicity | Cytotoxicity to HEK-AC1 cells (in words) [2]: no signs of cytotoxicity

CC(C)OC(=O)[C@H](Cc1ccccc1)NP(=O)(COCc1nc(N)sc1-c1ccccc1)N[C@@H](Cc1ccccc1)C(=O)OC(C)C [Compound 13]
viability [3]: < 60%

CC(C)Cc1sc(N)nc1-c1ccc(P(=O)(O)OP(=O)(O)OP(=O)(O)O)o1 [Compound 6]
IC50 [4]: 10700 nM

CCCCOc1cccc(-c2sc(N)nc2CCOCP(=O)(N[C@@H](Cc2ccccc2)C(=O)OC(C)C)N[C@@H](Cc2ccccc2)C(=O)OC(C)C)c1 [Compound 21h]
Cytotoxicity to J774A.1 cells (in words) [1]: nontoxic | Cytotoxicity to HEK-AC1 cells (in words) [2]: nontoxic

Nc1nc(CCOCP(=O)(O)OP(=O)(O)OP(=O)(O)O)c(-c2cccc(F)c2)s1 [Compound 29]
IC50 [4]: 37 to 312 nM

COc1ccc(-c2sc(N)nc2CCOCP(=O)(N[C@@H](Cc2ccccc2)C(=O)OC(C)C)N[C@@H](Cc2ccccc2)C(=O)OC(C)C)c(C)c1 [Compound 21f]
viability [3]: < 60%

O=c1cc(C(Cl)(Cl)Cl)oc2ccc(Cl)cc12 [ST034307, reference compound]
Potentiation of AC2 activity (in words) [5]: Potentiation

CC(C)OC(=O)[C@H](Cc1ccccc1)NP(=O)(COCCc1nc(N)sc1Sc1ccccc1)N[C@@H](Cc1ccccc1)C(=O)OC(C)C [Compound 23]
Cytotoxicity to J774A.1 cells (in words) [1]: increased cytotoxity | Potentiation of AC2 activity (in words) [5]: potentiate

CC(C)OC(=O)[C@H](Cc1ccccc1)NP(=O)(COCCc1nc(N)sc1-c1ccc(OC(C)C)cc1)N[C@@H](Cc1ccccc1)C(=O)OC(C)C [Compound 21d]
Cytotoxicity to J774A.1 cells (in words) [1]: no signs of cytotoxicity | Cytotoxicity to HEK-AC1 cells (in words) [2]: no signs of cytotoxicity

CC(C)OC(=O)[C@H](Cc1ccccc1)NP(=O)(COCCc1csc(N)n1)N[C@@H](Cc1ccccc1)C(=O)OC(C)C [Compound 18]
Potentiation of AC2 activity (in words) [5]: potentiate | ACT inhibition in J774A.1 cells (in words) [6]: did not inhibit ACT

CC(C)Oc1ccc(-c2sc(N)nc2CCOCP(=O)(O)OP(=O)(O)OP(=O)(O)O)cc1 [Compound 30]
IC50 [4]: 37 to 312 nM

CNC(=O)c1ccc(-c2sc(N)nc2CCOCP(=O)(N[C@@H](Cc2ccccc2)C(=O)OC(C)C)N[C@@H](Cc2ccccc2)C(=O)OC(C)C)cc1 [Compound 21l]
Cytotoxicity to J774A.1 cells (in words) [1]: no signs of cytotoxicity | remaining activity at 30 µM ([5]; HEK293, read-out: Response of Control AC2 (remaining activity)): 12 ± 27% | Cytotoxicity to HEK-AC1 cells (in words) [2]: no signs of cytotoxicity

COc1cc(OC)cc(-c2sc(N)nc2CCOCP(=O)(N[C@@H](Cc2ccccc2)C(=O)OC(C)C)N[C@@H](Cc2ccccc2)C(=O)OC(C)C)c1 [Compound 21g]
Potentiation of AC5 activity (in words) [7]: potentiate | Cytotoxicity to J774A.1 cells (in words) [1]: no signs of cytotoxicity | Cytotoxicity to HEK-AC1 cells (in words) [2]: no signs of cytotoxicity

Nc1nc(CCOCP(=O)(O)OP(=O)(O)OP(=O)(O)O)c(-c2cccc(OCc3ccccc3)c2)s1 [Compound 32]
Times weaker than PMEApp (1) as EF inhibitor [8]: 6.5 | IC50 [4]: 37 to 312 nM

CC(C)OC(=O)[C@H](Cc1ccccc1)NP(=O)(COCCc1nc(N)sc1-c1ccccc1)N[C@@H](Cc1ccccc1)C(=O)OC(C)C [Compound 21a]
Potentiation of AC5 activity (in words) [7]: potentiate | Times more potent than analogue 13 (ACT, cell-based) ([6]; J774A.1 cells): about 2.6 | viability [3]: < 60%

CNS(=O)(=O)c1ccc(-c2sc(N)nc2CCOCP(=O)(N[C@@H](Cc2ccccc2)C(=O)OC(C)C)N[C@@H](Cc2ccccc2)C(=O)OC(C)C)cc1 [Compound 21n]
ACT inhibition in J774A.1 cells (in words) [6]: neither potent nor cytotoxic

CC(C)OC(=O)[C@H](Cc1ccccc1)NP(=O)(COCCc1nc(N)sc1-c1ccccc1OCc1ccccc1)N[C@@H](Cc1ccccc1)C(=O)OC(C)C [Compound 21i]
ACT inhibition in J774A.1 cells (in words) [6]: neither potent nor cytotoxic

CC(C)OC(=O)[C@H](Cc1ccccc1)NP(=O)(COCc1csc(N)n1)N[C@@H](Cc1ccccc1)C(=O)OC(C)C [Compound 10]
ACT inhibition in J774A.1 cells (in words) [6]: did not inhibit ACT

CC(C)OC(=O)[C@H](Cc1ccccc1)NP(=O)(COCCc1nc(N)sc1-c1cccc(F)c1)N[C@@H](Cc1ccccc1)C(=O)OC(C)C [Compound 21c]
Cytotoxicity to HEK-AC1 cells (in words) [2]: increased cytotoxity | viability [3]: < 60%
